Test results reported in ChEMBL document CHEMBL1806427, “Pyridine-derived γ-secretase modulators” (Bioorg Med Chem Lett, 2011).
Active and inactive are the calls of the source. The calls are words filed in the database; no cut-off is given here.

Assays:
Gamma-secretase [1] = assay: Inhibition of gamma-secretase in human SHSY5Y cells expressing human recombinant Swedish variant of APP K595N/M596L assessed as reduction of amyloid beta40 level after 48 hrs by AlphaLISA assay; format: cell-based; details: sh-sy5y
[2] = Inhibition of gamma-secretase expressed in african green monkey CV1 cells co-expressing Gal4 DNA-binding/transactivation domain assessed as inhibition of notch processing after 22 hrs by luciferase reporter assay; format: cell-based; details: CV-1, 22 h
Gamma-secretase [3] = assay: Inhibition of gamma-secretase in human SHSY5Y cells expressing human recombinant Swedish variant of APP K595N/M596L assessed as reduction of amyloid beta42 level after 48 hrs by AlphaLISA assay; format: cell-based; details: sh-sy5y
Rattus norvegicus [4] = assay: Toxicity in Sprague-Dawley rat assessed as effect on Notch-mediated CD4 level in thymocytes at 30 mg/kg/day, po for 5 days measured 6 hrs after last dose; format: organism-based; parameters: route oral; details: in vivo
Rattus norvegicus [5] = assay: Antialzheimer activity in Sprague-Dawley rat assessed as reduction of amyloid beta42 level in brain at 30 mg/kg/day, po for 5 days measured 6 hrs after last dose; format: functional; parameters: scale not given: the % may be the effect or the level left
[6] = Drug level in Sprague-Dawley rat brain at 30 mg/kg/day, po for 5 days measured 6 hrs after last dose; format: ADME, organism-based; parameters: route oral; details: read-out: Drug uptake
Rattus norvegicus [7] = assay: Toxicity in Sprague-Dawley rat assessed as effect on Notch-mediated CD8 level in thymocytes at 30 mg/kg/day, po for 5 days measured 6 hrs after last dose; format: organism-based; parameters: route oral; details: in vivo
Rattus norvegicus [8] = assay: Toxicity in Sprague-Dawley rat assessed as effect on Notch-mediated Hes-1 mRNA level in ileum at 30 mg/kg/day, po for 5 days measured 6 hrs after last dose; format: organism-based; parameters: route oral; details: in vivo
[9] = Half life in Sprague-Dawley rat at 1 mg/kg, iv and 2 mg/kg, po; format: ADME, organism-based; details: in vivo
[10] = Oral bioavailability in Sprague-Dawley rat at 2 mg/kg; format: ADME, organism-based; details: in vivo
[11] = Volume of distribution at steady state in Sprague-Dawley rat at 1 mg/kg, iv and 2 mg/kg, po; format: ADME, organism-based; details: in vivo, read-out: Vdss
[12] = Blood clearance in Sprague-Dawley rat at 1 mg/kg, iv and 2 mg/kg, po; format: ADME, organism-based; details: whole blood
Brain = assay: Drug level in Sprague-Dawley rat brain at 30 mg/kg, po; format: ADME, organism-based; parameters: dose 30 mg/kg, route oral; details: in vivo, read-out: Drug uptake
SH-SY5Y = assay: Toxicity in human SH-SY5Y cells assessed as cell viability up to 3 uM by WST-1 assay; format: cell-based
Blood = assay: Drug level in Sprague-Dawley rat blood at 30 mg/kg, po; format: ADME, organism-based; parameters: dose 30 mg/kg, route oral; details: in vivo, read-out: Drug uptake
[13] = Ratio of drug level in brain to blood in Sprague-Dawley rat at 30 mg/kg, po; format: ADME, organism-based; parameters: dose 30 mg/kg, route oral; details: brain/whole blood, read-out: BBR
[14] = biological target: T1, Gamma-secretase (Homo sapiens) (UniProt Q96BI3+Q9NZ42+Q8WW43+P49768+Q92542+P49810); assay: Inhibition of gamma-secretase in human SHSY5Y cells expressing human recombinant Swedish variant of APP K595N/M596L assessed as reduction of amyloid beta40 level after 24 hrs by DELFIA assay; format: cell-based; details: SH-SY5Y
[15] = biological target: T1, Gamma-secretase (Homo sapiens); assay: Inhibition of gamma-secretase in human SHSY5Y cells expressing human recombinant Swedish variant of APP K595N/M596L assessed as reduction of amyloid beta42 level after 24 hrs by DELFIA assay; format: cell-based; details: SH-SY5Y
[16] = biological target: T1, Gamma-secretase (Homo sapiens); assay: Inhibition of gamma-secretase in human SHSY5Y cells expressing human recombinant Swedish variant of APP K595N/M596L assessed as increase of total amyloid beta level after 24 hrs by DELFIA assay; format: cell-based; details: SH-SY5Y

Row | pIC50 (Gamma-secretase [1]) | IC50 [2] [µM] | pIC50 (Gamma-secretase [3]) | Compound | other results
1 | 6 | 10 | 6.7 | COc1cc(-c2cnc(N[C@@H](C)c3ccc(F)cc3)nc2)ccc1-n1cnc(C)c1 | –
2 | < 4 | – | < 4 | CNC(=O)c1cc(-c2ccc(N[C@@H](C)c3ccc(F)cc3)nc2)ccc1-n1cnc(C)c1 | –
3 | 5.3 | 10 | 6.4 | COc1cc(-c2ccc(N[C@@H](C)c3ccc(F)cc3)nc2)ccc1-c1sc(C)nc1C | –
4 | 5.3 | – | 6.3 | CCOc1cc(-c2ccc(N[C@@H](C)c3ccc(F)cc3)nc2)ccc1-n1cnc(C)c1 | –
5 | 4.8 | – | 5.2 | Cc1cn(-c2ccc(-c3ccc(N[C@@H](C)c4ccc(F)cc4)nc3)cc2C)cn1 | –
6 | 6.1 | 10 | 6.9 | COc1cc(-c2ccc(N[C@@H](C)c3ccc(F)cc3)nc2)ccc1-n1cnc(C)c1 [listing 1 of 2 here] | Activity (Rattus norvegicus [4]): Non-toxic; concentration (Brain): 8.75 µM; Activity (Rattus norvegicus [5]): 27.6%; concentration at 6 h [6]: 8.86 µM; Activity (Rattus norvegicus [7]): Non-toxic; Activity (Rattus norvegicus [8]): Non-toxic; Activity (SH-SY5Y): Non-toxic; concentration (Blood): 4.98 µM; Kp [13]: 1.74
7 | 6.2 | – | 7.1 | COc1cc(-c2nnc(N[C@@H](C)c3ccc(F)cc3)s2)ccc1-n1cnc(C)c1 | –
8 | 4.5 | – | 6.5 | COc1cc(-c2noc(N[C@@H](C)c3ccc(F)cc3)n2)ccc1-n1cnc(C)c1 | –
9 | 5.7 | 15.8 | 6.6 | COc1cc(-c2ccc(N[C@@H](C)c3ccc(F)cc3)nc2)ccc1-c1cc(C)ns1 | –
10 | 5 | – | 4.8 | Cc1cn(-c2ccc(-c3ccc(N[C@@H](C)c4ccc(F)cc4)nc3)cc2-c2ccccc2)cn1 | –
11 | 5.2 | 6.31 | 6.3 | COc1cc(-c2ccc(N[C@@H](C)c3ccc(F)cc3)nc2)ccc1-c1ccnc(C)c1 | –

More lines, now with the values behind:

Row | Compound | pIC50 (Gamma-secretase [1]) | IC50 [2] [µM] | pIC50 (Gamma-secretase [3]) | other results
12 | COc1cc(-c2ncc(N[C@@H](C)c3ccc(F)cc3)cn2)ccc1-n1cnc(C)c1 | 5.9 | 10 | 6.6 | –
13 | COc1cc(-c2ccc(N[C@@H](C)c3ccc(F)cc3)nc2)ccc1-c1ccnnc1 | 5.7 | 12.6 | 6.4 | –
14 | COc1cc(-c2cc(C)c(N[C@@H](C)c3ccc(F)cc3)nn2)ccc1-n1cnc(C)c1 | – | – | – | Activity (Rattus norvegicus [4]): Non-toxic; Activity (Rattus norvegicus [5]): 45.7%; concentration at 6 h [6]: 10.4 µM; Activity (Rattus norvegicus [7]): Non-toxic; Activity (Rattus norvegicus [8]): Non-toxic
15 | COc1cc(-c2ccc(N[C@@H](C)c3ccc(F)cc3)nc2)ccc1-n1cnc(C)c1.Cl | – | – | – | half-life [9]: 198 min; bioavailability [10]: 100%; Vd [11]: 3.7 L/kg; clearance [12]: 12.2 mL/min/kg
16 | COc1cc(-c2ccc(N[C@@H](C)c3ccc(F)cc3)cn2)ccc1-n1cnc(C)c1 | 5 | 6.31 | 6.2 | –
17 | Cc1cn(-c2ccc(-c3ccc(N[C@@H](C)c4ccc(F)cc4)nc3)cc2N(C)C)cn1 | 4.4 | – | 4.3 | –
18 | Cc1cn(-c2ccc(-c3ccc(N[C@@H](C)c4ccc(F)cc4)nc3)cc2OC(C)C)cn1 | 5.1 | – | 5.5 | –
19 | COc1cc(-c2cnc(N[C@@H](C)c3ccc(F)cc3)s2)ccc1-n1cnc(C)c1 | 4.3 | – | 6.1 | –
20 | COc1cc(-c2ccc(N[C@@H](C)c3ccc(F)cc3)nc2)ccc1-n1cnc(C)c1 [listing 2 of 2 here] | – | – | – | inhibition [14]: Dose-dependent effect; inhibition [15]: Dose-dependent effect; inhibition [16]: Active
21 | Cc1cn(-c2ccc(-c3ccc(N[C@@H](C)c4ccc(F)cc4)nc3)cc2Cl)cn1 | 5.7 | – | 6.4 | –
